According to US20060116392A1, “Methods for treating anxiety disorders and related article of manufacture” (priority 2004, published 2006):

Key:
morphine CPP [1] = assay: Consolidated morphine CPP after a single reconditioning session; inhibitor given after reconditioning; assay type: in vivo, Long Evans rats
Description: However, it is important to consider that during morphine CPP, the drug may serve as an internal reinforcer and the animal experiences a strong reward. It remained unknown whether CPP may become labile if the rewarding state of the drug experience is concomitantly reactivated with the contextual cues (reconditioning). Therefore, it was examined whether a previously formed CPP becomes labile after a reconditioning session. Rats were conditioned to morphine for 4 days and, 1 week later, were exposed to another, single conditioning session. Immediately after this session, half of the animals received an injection of inhibitor (cycloheximide or anisomycin) and the other half of vehicle solution and were then all retested 24 hours and 1 week later.
It was then tested whether blocking protein synthesis after reconditioning for a longer time would result in a stable disruption of CPP. Groups of rats were treated as above but received two injections of cycloheximide, one immediately after reconditioning and the second 5 hours later, a protocol that, as described in the first set of experiments, block 70% of protein synthesis for several hours.
(§1) Adult Long Evans rats (200-250 grams) were used for all the experiments. On day 1, the rats received a single pre-exposure test in a box composed of two distinct compartments (Pre-conditioning). The time spent in each chamber over 10 minutes was recorded (unconditioned preference) and then the animals were returned to their homecages. Animals showing a strong unconditioned preference (>540 s) were discarded. On the subsequent 4 days, place preference conditioning was conducted using an unbiased procedure. In each experimental group, the animals received a subcutaneous injection of either morphine (10 mg/kg) or saline (vehicle solution). Half of both groups were confined for 30 minutes in the spontaneously preferred compartment and the other half in the non-preferred compartment. Testing consisted of allowing the animals free access to both chambers for 10 minutes and recording the amount of time that the animals spend in the conditioned chamber (CPP score). All protocols complied with the N.I.H. Guide for the Care and Use of Laboratory Animals and were approved by the Mount Sinai School of Medicine Animal care Committees.
(§2) Anisomycin and Cycloheximide were injected s.c. at 210 mg/Kg (Milekic and Alberini, 2002) and 2.8 mg/Kg (Squire et al., 1980), respectively. Anisomycin was dissolved as previously described (Milekic and Alberini, 2002). Cycloheximide was dissolved in DMSO and finally diluted in 1% DMSO/saline. Vehicle solutions were prepared accordingly.

morphine CPP [2] = assay: Maintenance of morphine CPP after contextual reactivation (Test 1); inhibitor given after recall; assay type: in vivo, Long Evans rats; conditions: for CPP score, mean±SEM: injection immediately after Test 1 (1 week after conditioning), Test 2, 24 hours later, cycloheximide and anisomycin scores combined; for change in CPP score: injection immediately after Test 1, re-tested 24 hours later (Test 2)
Description: The purpose of second set of experiments was to determine whether morphine CPP becomes labile if recalled. Groups of rats were conditioned to morphine for 4 days. […] This test recalled the experience (Test 1), or, in other words, reactivated CPP. Immediately after Test 1, half of the rats received an injection of cycloheximide or anisomycin and half were injected with vehicle. The animals were re-tested 24 hours later (Test 2). […] (Test1-vehicle: 394.4±42.6 sec; Test1-inhibitor: 387.8±25.8 sec; Test2-vehicle 413.3±35.9 sec; Test2-inhibitor 425.9±25.3 sec) (FIG. 2). Because both cycloheximide and anisomycin-treated rats performed similarly, their scores were combined.
as §1, §2

protein synthesis = assay: Inhibition of protein synthesis in brain (L-[35S]methionine incorporation); assay type: in vivo, rats
Description: (§3) Because both anisomycin and cycloheximide produced a similar effect, the CPP score of the two groups were combined. […] Further experimentation was needed to determine whether a more extended inhibition of protein synthesis was able to persistently block CPP. Groups of rats were treated as above but received two injections of cycloheximide, one immediately after the last conditioning session and the second 5 hours later. In parallel, the rates of protein synthesis inhibition, over time, following a single or double injection were established. […] With a double injection, 5 hours apart, the rate of protein synthesis inhibition at 6 hours was maintained at 71%. The results after two injections were similar to those after a single injection; in fact, the CPP of rats that received two injection of cycloheximide was inhibited at 24 hours, but recovered a week later (data not shown).
Inhibition of protein synthesis was assessed according to Rosenblum et al. (1993) with modifications. Rats were injected with 125 μCi L-[^35S]methionine (i.p.) and immediately after received an injection of either protein synthesis inhibitors, (cycloheximide or anisomycin) or vehicle solution. The rats were sacrificed one hour after the last inhibitor injection. The brains were homogenized in 5 volumes of cold lysis buffer (1% SDS, 60 mM Tris.Cl pH 7.4, 62.4 mM imidazole, 40 mM DTT, 10% glycerol). The homogenates were boiled for 5 min and centrifuged at 18,000 g for 20 min at room temperature. Equal amount of proteins were precipitated with 20% TCA and the radioactivity was counted. The inhibition of protein synthesis was calculated as: [1−(CPMinhibitor/CPMvehicle)]×100.

morphine CPP [3] = assay: Morphine CPP, conditioning context omitted (injections in homecage); assay type: in vivo, Long Evans rats
Description: (3C) The conditioning context was omitted and rats (n=8) were injected in their home cage with morphine and 30 min later with cycloheximide at the same time point as in (3A) and (3B). CPP was tested 24 hr after injection (post-injection).
(3D) Rats were injected only with cycloheximide (n=9) in the home cage at the same time points as in (3A) and (3B) without receiving either morphine or exposure to the conditioning context. CPP was tested 24 hr after the last injection (post-injection).
To investigate whether the blocking effect of the inhibitors on CPP was context-specific, the conditioning context was omitted, that is morphine and cycloheximide were administered in the homecages at the same times after conditioning.
as §1
Anisomycin and Cycloheximide were injected s.c. at 210 mg/Kg (Milekic and Alberini, 2002) and 2.8 mg/Kg (Squire et al., 1980), respectively. Anisomycin was dissolved as previously described (Milekic and Alberini, 2002). […]

morphine CPP [4] = assay: Induction of morphine conditioned place preference (CPP); inhibitor given after conditioning; assay type: in vivo, Long Evans rats; conditions: for CPP score (time spent in drug associated-chamber), mean±SEM: single s.c. dose at end of four-day conditioning, anisomycin and cycloheximide groups combined; for effect on morphine CPP: single s.c. dose at the end of four-day conditioning, tested at 24 hours
Description: . CPP was tested after 24 hours. To determine whether the effect was stable, the animals were retested 1 week later.
as §3
Experimentation was needed to test the possibility that blocking protein synthesis after each daily conditioning produced a stable loss of CPP. Groups of rats received an injection of either cycloheximide or vehicle every day at the end of each conditioning trial and were then tested 24 hours, 1 week and 4 weeks later. […] This inhibition persisted at 1 week (254.8±32.8 sec and 429.4±33.1 sec, respectively, p<0.01) and 4 weeks (243.3±21.8 sec and 416.8±31.4 sec, respectively, p<0.01) post-conditioning (FIG. 1B).
as §1, §2

[5] = single injection immediately after reconditioning, 1 week later, cycloheximide or anisomycin combined
[6] = single injection immediately after reconditioning, 24 hours after reconditioning, cycloheximide or anisomycin combined
[7] = injection every day at the end of each conditioning trial, 24 hours after conditioning

C[C@@H]1C[C@@H]([C@H](O)CC2CC(=O)NC(=O)C2)C(=O)[C@@H](C)C1 [cycloheximide]
CPP score, mean±SEM (morphine CPP [1]; double injection (immediately after reconditioning and 5 hours later), 24 hours): 264.1 ± 13.3 s | CPP score, mean±SEM (morphine CPP [1]; double injection after reconditioning, 1 week): 239.9 ± 34.4 s | CPP score, mean±SEM (morphine CPP [1]; double injection after reconditioning, 2 weeks): 270.1 ± 27.2 s | CPP score, mean±SEM (morphine CPP [1]; double injection after reconditioning, 4 weeks): 278.4 ± 32.5 s | effect on CPP (morphine CPP [1]; double injection after reconditioning, tested 24 hours to 4 weeks): completely and persistently blocked | CPP score, mean±SEM (morphine CPP [1]; [5]): 365.4 ± 45.1 s | CPP score, mean±SEM (morphine CPP [1]; [6]): 261.5 ± 33.9 s | CPP score, mean±SEM (morphine CPP [2]): 425.9 ± 25.3 s | change in CPP score (morphine CPP [2]): No change | inhibition of protein synthesis (protein synthesis; double injection, 5 hours apart, at 6 hours): 71% | inhibition of protein synthesis (protein synthesis; single injection, at 1 hour): 70% | inhibition of protein synthesis (protein synthesis; single injection, at 6 hours after injection): 23% | protein synthesis blocked (protein synthesis; two injections, 5 hours apart, for several hours): 70% | effect on CPP (morphine CPP [3]; morphine and cycloheximide administered in the homecages, conditioning context omitted): No blocking effect | CPP score, mean±SEM (morphine CPP [3]; morphine and cycloheximide administered in the homecages, conditioning context omitted, post-conditioning (24 hr after injection)): 362.22 ± 17.4 s | CPP score, mean±SEM (morphine CPP [3]; only the inhibitor in the homecage, morphine and context omitted, post-conditioning (24 hr after last injection)): 399.8 ± 31.6 s | CPP score, mean±SEM (morphine CPP [4]; injection every day at the end of each conditioning trial, 1 week post-conditioning): 254.8 ± 32.8 s | CPP score, mean±SEM (morphine CPP [4]; injection every day at the end of each conditioning trial, 4 weeks post-conditioning): 243.3 ± 21.8 s | CPP score, mean±SEM (morphine CPP [4]; [7]): 226.6 ± 47.2 s | effect on CPP (morphine CPP [4]; [7]): complete inhibition | CPP score (time spent in drug associated-chamber), mean±SEM (morphine CPP [4]; 24 hours): 280.1 ± 17.5 s | CPP score (time spent in drug associated-chamber), mean±SEM (morphine CPP [4]; re-tested 1 week later): 358.9 ± 28.0 s | effect on morphine CPP (morphine CPP [4]): completely blocked | effect on CPP (morphine CPP [4]; two injections (immediately after last conditioning session and 5 hours later), a week later, data not shown): recovered | effect on CPP (morphine CPP [4]; two injections (immediately after last conditioning session and 5 hours later), at 24 hours, data not shown): inhibited

COc1ccc(C[C@H]2NC[C@H](O)[C@H]2OC(C)=O)cc1 [anisomycin]
CPP score, mean±SEM (morphine CPP [1]; [5]): 365.4 ± 45.1 s | CPP score, mean±SEM (morphine CPP [1]; [6]): 261.5 ± 33.9 s | CPP score, mean±SEM (morphine CPP [2]): 425.9 ± 25.3 s | change in CPP score (morphine CPP [2]): No change | CPP score (time spent in drug associated-chamber), mean±SEM (morphine CPP [4]; 24 hours): 280.1 ± 17.5 s | CPP score (time spent in drug associated-chamber), mean±SEM (morphine CPP [4]; re-tested 1 week later): 358.9 ± 28.0 s | effect on morphine CPP (morphine CPP [4]): completely blocked
